Measured values from patent publication US6531143B1, “α-hydroxy fatty acid derivatives and external compositions containing the same” (Kanebo, Limited, priority 1998, dated 2003).
Where two headings read alike, the source gives them in different places.

Key:
[1] = test system: skin (facies medialis brachii of 20 subjects); assay: Safety test: irritation to the skin, 24 h patch test; details: 50 wt % in olive oil, 1 ml on adhesive plaster, 24 hours on facies medialis brachii, evaluated 24 hours after removing the patch, subjects with clear erythema
Method: (§1) As the safety test, irritation to the skin was examined by the following method. Each sample of the alpha-hydroxy fatty acid derivatives obtained in the Examples prepared by dissolving in olive oil in the concentration of 50 wt % and an adhesive plaster for patch test was impregnated with 1 ml of the sample. The adhesive plaster was put on the facies medialis brachii of 20 subjects for 24 hours. Irritation was evaluated 24 hours after removing the patch.

[2] = test system: skin (facies medialis brachii of 20 subjects); details: in vivo
Method: as §1

| Compound | melting point | Positive percentage [2] | Positive percentage [1] |
| --- | --- | --- | --- |
| CCCCCCCCCCCCC(OC(=O)C(C)C)C(=O)OCCCCCCCCCCCCCCCCCC(C)CC (stereo not shown) [2-isobutyryloxymyristic acid-(18)-methylicosanyl ester] |  |  | 0% |
| CCCCCCCCCCCCCCCCC(OC(C)=O)C(=O)OCCCCCCCCCCCCCCCCCC(C)C (stereo not shown) [2-acetyloxystearic acid-(18)-methylnonadecanyl ester] |  |  | 0% |
| CCCCCCCCCCCCCCCCOC(=O)C(CCCCCCCCCCCCCC)OC(=O)CCCCCCCCCCCCCCC (stereo not shown) [2-palmitoyloxypalmitic acid palmityl ester] | 52.5 °C |  | 0% |
| CCCCCCCCCCCCOC(=O)C(CCCCCCCCCC)OC(=O)CC(C)C (stereo not shown) [2-isovaleryloxylauric acid lauryl ester] |  |  | 0% |

Now from value to compound, other results behind:

| melting point | Positive percentage [2] | Compound | Positive percentage [1] |
| --- | --- | --- | --- |
| 35.1 °C |  | CCCCCCCCCCCCCCCCOC(=O)C(CCCCCCCCCCCCCC)OC(C)=O (stereo not shown) [2-acetyloxypalmitic acid palmityl ester] | 0% |
| 28.3 °C |  | CCCCCCCCCCCCCCCCOC(=O)C(CCCCCCCCCCCCCC)OC(=O)C(C)C (stereo not shown) [2-isobutyryloxypalmitic acid palmityl ester] | 0% |
|  | 0% | 2-long-chain branched fatty acid (12-31) oxypalmitic acid palmityl ester |  |
